Numbers after ± are expanded uncertainties.
Key:
[1] = for mass density: 101.33 kPa, X-ray diffraction
[2] = Molar enthalpy of transition or fusion; conditions: DSC

Triple point temperature ([1]; Crystal, visual observation) [K]	Triple point temperature ([1]; Crystal 1, DSC) [K]	Triple point temperature ([1]; Metastable crystal, DSC) [K]	Molar enthalpy of transition or fusion ([2]; Crystal 1) [kcal/mol]	Triple point temperature ([1]; Crystal 2, DSC) [K]	Molar enthalpy of transition or fusion ([2]; Crystal 2) [kcal/mol]	Compound	also measured
589.15 ± 3	–	–	–	–	–	N#Cc1cc(N)ccc1-c1ccc2c(c1)C(=O)NC2=O [5-amino-2-(1,3-dioxoisoindolin-5-yl)benzonitrile]	–
558.15 ± 3	–	–	–	–	–	N#Cc1ccc(-c2ccc(N)cc2C#N)cc1C#N [4-amino-[1,1'-biphenyl]-2,3',4'-tricarbonitrile]	–
–	503.45 ± 0.8	489.35 ± 0.8	8.13 ± 0.287	487.95 ± 0.8	1.31 ± 0.0717	CCN(CC)c1ccc(N=Nc2ccc(-c3ccc(C#N)c(C#N)c3)c(C#N)c2)cc1	mass density ([1]; 296 K, Crystal 2): 1217 ± 8 kg/m3
472.15 ± 3	–	–	–	–	–	N#Cc1ccc(-c2ccc([N+](=O)[O-])cc2C#N)cc1C#N [4-nitro-[1,1'-biphenyl]-2,3',4'-tricarbonitrile]	–

Continued, compound first:

Compound	Triple point temperature ([1]; Crystal, visual observation) [K]	Triple point temperature ([1]; Crystal 1, DSC) [K]	Triple point temperature ([1]; Metastable crystal, DSC) [K]	Molar enthalpy of transition or fusion ([2]; Crystal 1) [kcal/mol]	Triple point temperature ([1]; Crystal 2, DSC) [K]	Molar enthalpy of transition or fusion ([2]; Crystal 2) [kcal/mol]	also measured
CCCCCCCCN(CCCCCCCC)c1ccc(N=Nc2ccc(-c3ccc(C#N)c(C#N)c3)c(C#N)c2)cc1	–	368.35 ± 0.8	365.05 ± 0.8	–	–	–	mass density ([1]; 296 K, Metastable crystal): 1124 ± 7 kg/m3
N#Cc1cc([N+](=O)[O-])ccc1-c1ccc2c(c1)C(=O)NC2=O [2-(1,3-dioxoisoindolin-5-yl)-5-nitrobenzonitrile]	567.15 ± 3	–	–	–	–	–	–
CCCCN(CCCC)c1ccc(N=Nc2ccc(-c3ccc(C#N)c(C#N)c3)c(C#N)c2)cc1	–	427.35 ± 0.8	403.45 ± 0.8	8.39 ± 0.311	–	–	mass density ([1]; 296 K, Crystal 1): 1165 ± 6 kg/m3; Glass transition temperature ([1]; Glass, DSC): 42.00 ± 0.8 °C
CCCCN(CCCC)c1ccc(N=Nc2cccc(C#N)c2-c2ccc(C#N)c(C#N)c2)cc1	–	469.05 ± 0.8	–	8.48 ± 0.311	386.25 ± 0.8	0.645 ± 0.0478	mass density ([1]; 296 K, Crystal 2): 1180 ± 6 kg/m3
CCCCN(CCCC)c1ccc(N=Nc2ccc(-c3ccc4c(c3)C(=O)NC4=O)c(C#N)c2)cc1	–	456.85 ± 0.8	–	6.72 ± 0.239	436.45 ± 0.8	0.621 ± 0.0478	mass density ([1]; 200 K, Crystal 2): 1262 ± 7 kg/m3
